One data set relates to T-cells. Put plainly: selective cytotoxicity for T-cells in the presence of 2'-deoxyguanosine (standard test, Science, 214, 1137, 1981). In kind it is cell-based. Particulars: in the presence of 10 micromoles of 2'-deoxyguanosine. From the text:
(§1) The same compounds also were found by a standard test (Science, 214, 1137, 1981) to be selectively cytotoxic for T-cells in the presence of 2'-deoxyguanosine at a similar concentration range. For example, 2,8-diamino-9-[(2-hydroxyethoxy)methyl)]-9H-purine-6-ol is selectively cytotoxic to T-cell at a concentration of about 30 micromoles in the presence of 10 micromoles of 2'-deoxyguanosine. Similarly, 2-[(2,8-diamino-6-hydroxy-9H-purin-9-yl)methoxy]-1,3-propanediol is selectively cytotoxic to T-cell at a concentration of about 7 micromoles in the presence of 10 micromoles of 2'-deoxyguanosine. Both compounds were nontoxic to B-cell in the presence of the same amount of 2'-deoxyguanosine. Since T-cells play a central role in immune response, use of the compounds of the invention is contemplated for the immunoregulation of autoimmune diseases such as rheumatoid arthritis, systemic lupus erythematosus, inflammatory bowel disease, cancer, and viral diseases, transplantation, juvenile diabetes, myasthenia gravis, and multiple sclerosis. The present invention thus includes compositions containing a compound of formula 1 in treating disease such as autoimmune disease characterized by abnormal immune response in warmblooded animals. […]

For the next data set, the system named is B-cell. Put plainly: toxicity to B-cell in the presence of 2'-deoxyguanosine. It is filed as cell-based. Particulars: in the presence of the same amount (10 micromoles) of 2'-deoxyguanosine.
Excerpt: as §1

Consider `Nc1nc2c(nc(N)n2COCCO)c(=O)[nH]1` [2,8-Diamino-9-[(2-hydroxyethoxy)methyl)]-9H-purin-6-ol], for which the “concentration at which selectively cytotoxic to T-cell” value in the data set on T-cells is on record as “about 30 micromoles”. The “toxicity to B-cell” value in the data set on B-cell is reported as “nontoxic”.
For `Nc1nc(O)c2nc(N)n(COC(CO)CO)c2n1` [2-[(2,8-Diamino-6-hydroxy-9H-purin-9-yl)methoxy]-1,3-propanediol], in that order: “about 7 micromoles” and “nontoxic”.

The values are drawn from US4806642A, “Purine derivatives” (Warner-Lambert Company, priority 1987, dated 1989).
